# Reference: US7381748B1, “Compounds and related methods for inhibition of gamma-aminobutyric acid aminotransferase” (Northwestern University, priority 2002, dated 2008)
# Structures can show the parent of a compound that is named as a salt. Where two headings read alike, the source gives them in different places.
# What was measured:
# GABA-AT [1] = biological target: T1, GABA-AT (Sus scrofa, UniProt P80147); conditions: as substrate of GABA-AT; cited from earlier work
# T1 construct: purchased
# GABA-AT [2] = biological target: T1, GABA-AT; experiment: Time-dependent inactivation of GABA-AT; assay type: biochemical
# Excerpt: Fluorine incorporation may also make a corresponding intermediate sufficiently reactive to be trapped by the enzyme. While the cis isomer is shown in Scheme 6.
# Then a secondary plot of half-life versus the reciprocal of inactivator concentration was obtained to determine KI and kinact.
# GABA-AT [3] = biological target: T1, GABA-AT; conditions: cited from earlier work
# T1 sequence (P80147 29-500): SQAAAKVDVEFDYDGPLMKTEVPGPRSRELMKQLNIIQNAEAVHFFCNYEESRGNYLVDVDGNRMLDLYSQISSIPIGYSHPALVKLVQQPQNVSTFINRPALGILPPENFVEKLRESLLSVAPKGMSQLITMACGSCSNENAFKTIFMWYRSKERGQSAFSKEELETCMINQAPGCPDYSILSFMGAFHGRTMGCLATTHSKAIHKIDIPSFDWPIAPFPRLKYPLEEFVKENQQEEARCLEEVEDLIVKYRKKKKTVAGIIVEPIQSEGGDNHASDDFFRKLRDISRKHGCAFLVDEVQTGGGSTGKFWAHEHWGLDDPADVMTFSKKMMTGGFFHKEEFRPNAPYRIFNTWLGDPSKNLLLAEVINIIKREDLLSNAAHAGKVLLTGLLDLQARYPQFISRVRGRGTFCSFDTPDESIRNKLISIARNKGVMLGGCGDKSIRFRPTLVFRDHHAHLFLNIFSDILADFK
structure (smiles),measurement,setting,value
"NCCCC(=O)O [GABA, γ-aminobutyric acid]",Km,GABA-AT [1],2400 µM
same,kcat,GABA-AT [1],0.817 s⁻¹
"NC1CC(C(=O)O)C/C1=C/F [Compound 22, (Z)-(1S, 3S)-3-Amino-4-fluoromethylenyl-1-cyclopentanoic acid, hydrochloride salt]",time-dependent inhibition of GABA-AT (in words),GABA-AT [2],potent time-dependent inhibitors of GABA-AT
"NC1CC(C(=O)O)C/C1=C\F [Compound 20, (E)-(1S, 3S)-3-Amino-4-fluoromethylenyl-1-cyclopentanoic acid, hydrochloride salt]",time-dependent inhibition of GABA-AT (in words),GABA-AT [2],potent time-dependent inhibitors of GABA-AT
C=CC(N)CCC(=O)O (stereo not shown) [vigabatrin],share of total inactivation accounted for by pathway a (Michael addition),GABA-AT [3],70-75%
"C=C1C[C@H](C(=O)O)C[C@@H]1N [Compound 7, 3β-Amino-4-methylenylcyclopentane-1β-carboxylic acid]",GABA-AT inactivation (in words),GABA-AT [3]; 2-mercaptoethanol added to the incubation mixture,no inactivation was observed
same,GABA-AT inactivation (in words),GABA-AT [3]; no 2-mercaptoethanol added,inactivated GABA-AT
